In patent publication US20020137209A1, “Methods of dissociating nongenotropic from genotropic activity of steroid receptors” (priority 2000, published 2002):
Values belong to the compound of their own block, whether it stands above or below them. Ends that are not written are not given here.

Tests used:
[1] = system: retinoid X receptor (RXR); assay: Etoposide-induced apoptosis in HeLa cells transfected with RXR
[2] = system: calvaria-derived murine osteoblastic cells; assay: Apoptosis of calvaria-derived osteoblastic cells (trypan blue); conditions: etoposide-induced apoptosis
[3] = target: T1, ERα (Homo sapiens, UniProt P03372); assay: C3-luc transcription in HeLa cells transfected with ERα; assay type: cell-based; set-up: expression vectors encoding the full length ERα or its E domain; expressed in transfected cells; host or cells: HeLa; conditions: HeLa with C3-luc and ERα
T1 sequence (P03372 1-595): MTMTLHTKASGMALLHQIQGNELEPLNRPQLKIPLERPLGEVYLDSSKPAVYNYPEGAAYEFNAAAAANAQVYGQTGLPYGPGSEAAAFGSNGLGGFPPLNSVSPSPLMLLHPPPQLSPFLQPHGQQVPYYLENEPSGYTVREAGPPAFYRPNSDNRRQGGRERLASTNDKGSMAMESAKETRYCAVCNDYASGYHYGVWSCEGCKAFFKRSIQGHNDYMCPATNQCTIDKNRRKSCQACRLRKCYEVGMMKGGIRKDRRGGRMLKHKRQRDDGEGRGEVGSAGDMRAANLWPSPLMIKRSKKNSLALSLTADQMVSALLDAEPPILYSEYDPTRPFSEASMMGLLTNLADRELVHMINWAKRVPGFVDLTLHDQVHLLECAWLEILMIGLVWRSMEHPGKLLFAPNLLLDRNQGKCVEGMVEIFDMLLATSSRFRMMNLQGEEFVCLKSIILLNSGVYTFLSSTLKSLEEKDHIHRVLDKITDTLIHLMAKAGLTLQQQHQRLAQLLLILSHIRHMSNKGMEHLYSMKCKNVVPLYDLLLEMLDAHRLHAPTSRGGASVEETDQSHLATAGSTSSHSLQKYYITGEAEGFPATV
Method: A. For C3-mediated transcription, HeLa cells were transfected with C3-luc and ERα, and were treated with the indicated concentrations of an estren or a pyrazole. Bars represent the mean±SD of the relative luciferase units (RLU) normalized for β-galactosidase activity. p<0.05 versus cells transfected with empty vector (ev), by ANOVA. The anti-apoptotic activity of the estren and the pyrazole was evaluated in calvaria-derived osteoblasts as described in FIG. 1B. * p<0.05 versus cells not treated with etoposide by ANOVA. B. MLO-Y4 cells were incubated for 5, min with the indicated concentrations of the different ligands and ERK phosphorylation was assessed as in FIG. 4A.
DNA constructs. Reporter plasmids carrying the 2.25 Kb of the human IL-6 promoter, 3 copies of the vitellogenin ERE sequences, or the complement 3 promoter driving the firefly luciferase gene (IL-6-luc, ERE-luc, and C3-luc, respectively) were used to assay transcriptional effects of the steroids. The expression plasmids of ER peptide antagonists carrying either αII, or two copies of 293 (2x293) , or two copies of F6 (2xF6) or GRIP fused to the GAL4 DNA binding domain driven by the SV40 promoter have been described previously (Norris, J. D. et al. (1999) Science 285, 744-746). The sequences of the peptides are disclosed in Chang et al. (1999) Mol. Cell. Bio. 19:8226-8239 which is incorporated herein in its entirety. […]

[4] = target: T2, ERβ (Homo sapiens, UniProt Q92731); assay: ERE-luc transcription in HeLa cells transfected with ERβ; assay type: cell-based; set-up: expressed in transfected cells; host or cells: HeLa; conditions: ERβ carrying HeLa cells, 10^−8 M E2
Source text: (§1) A. HeLa cells were transiently transfected with the ERα expression vector alone or together with a vector carrying a fusion of the α-II peptide with the GAL4 DNA binding domain driven by the SV40 promoter. In addition, cells were transfected with ERE-luc or IL-6-luc for the transcription studies; or with EGFP-nuc for the apoptosis experiments. […] B. HeLa cells were transfected with ERα or ERβ alone or together with expression vectors carrying 2X293 or 2XF6 peptides. […] C. HeLa cells were transfected with a vector carrying the GRIP peptide alone or together with ERα.
(§2) DNA constructs. […] Bio. […] The sequence for peptide αII is […] (SEQ ID NO.: 1). […] (SEQ ID NO.: 3). The sequence for GRIP is […] […] […] (SEQ ID NO.: 4). […] The forward primer contained the restriction site for SalI and the ERα Kozak sequence and the reverse primer contained the BamH1 restriction site. Amplified PCR products were subcloned into the SalI/BamH1 restriction site of pCMV.
(§3) Transient transfections. HeLa cells were plated at 5×10^4/cm^2 and after 16-24 hours were transfected with a total amount of 3 μg of DNA using Lipofectamine (Life Technologies Inc). Following a 4-6 hours of incubation, the transfection mix was replaced with fresh medium containing 10% charcoal-stripped serum and treatments were initiated.

[5] = target: T1, ERα; assay: IL-6-luc transcription in HeLa cells transfected with ERα; assay type: cell-based; set-up: expression vectors encoding the full length ERα or its E domain; expressed in transfected cells; host or cells: HeLa; conditions: ERα carrying HeLa cells, 10^−8 M E2
Source text: as §1, §2, §3

[6] = target: T1, ERα; assay: Etoposide-induced apoptosis in HeLa cells transfected with ERα
[7] = target: T2, ERβ; assay: IL-6-luc transcription in HeLa cells transfected with ERβ; assay type: cell-based; set-up: expressed in transfected cells; host or cells: HeLa; conditions: ERβ carrying HeLa cells, 10^−8 M E2
Source text: as §1, §2, §3

[8] = target: T2, ERβ; assay: Etoposide-induced apoptosis in HeLa cells transfected with ERβ; conditions: peptide co-transfected, 10^−8 M E2
[9] = target: T1, ERα; assay: ERE-luc transcription in HeLa cells transfected with ERα; assay type: cell-based; set-up: expression vectors encoding the full length ERα or its E domain; expressed in transfected cells; host or cells: HeLa; conditions: ERα carrying HeLa cells, 10^−8 M E2
Source text: as §1, §2, §3

[10] = target: T3, AR (Homo sapiens, UniProt P10275); assay: Etoposide-induced apoptosis in HeLa cells transfected with AR
T3 sequence (P10275 1-920): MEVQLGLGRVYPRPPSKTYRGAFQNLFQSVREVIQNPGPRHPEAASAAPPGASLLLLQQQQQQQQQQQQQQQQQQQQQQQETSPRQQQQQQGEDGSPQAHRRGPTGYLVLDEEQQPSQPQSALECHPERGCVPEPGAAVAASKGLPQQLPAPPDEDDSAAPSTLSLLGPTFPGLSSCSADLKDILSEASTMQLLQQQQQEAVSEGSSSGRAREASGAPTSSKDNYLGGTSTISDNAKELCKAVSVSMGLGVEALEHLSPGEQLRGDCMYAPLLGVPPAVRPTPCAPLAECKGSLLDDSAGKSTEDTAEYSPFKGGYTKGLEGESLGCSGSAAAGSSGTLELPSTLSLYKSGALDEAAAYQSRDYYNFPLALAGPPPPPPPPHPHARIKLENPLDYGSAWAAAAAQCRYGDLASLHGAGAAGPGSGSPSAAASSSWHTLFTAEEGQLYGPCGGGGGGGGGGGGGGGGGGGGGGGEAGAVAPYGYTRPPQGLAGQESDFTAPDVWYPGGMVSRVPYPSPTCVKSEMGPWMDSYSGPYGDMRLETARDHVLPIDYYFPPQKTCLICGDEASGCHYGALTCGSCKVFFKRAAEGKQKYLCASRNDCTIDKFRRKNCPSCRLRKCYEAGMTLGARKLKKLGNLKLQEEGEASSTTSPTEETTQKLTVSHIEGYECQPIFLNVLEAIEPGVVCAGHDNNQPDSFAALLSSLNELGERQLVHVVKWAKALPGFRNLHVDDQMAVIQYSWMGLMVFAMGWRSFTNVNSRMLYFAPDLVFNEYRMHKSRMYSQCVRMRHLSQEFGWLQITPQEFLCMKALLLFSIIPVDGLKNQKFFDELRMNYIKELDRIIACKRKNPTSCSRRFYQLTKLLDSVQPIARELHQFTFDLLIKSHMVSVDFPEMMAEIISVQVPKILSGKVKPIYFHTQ

[11] = system: ERK1/2; assay: ERK phosphorylation in MLO-Y4 cells (Western blot); assay type: cell-based; conditions: inhibitor 25 min, then 5 min E2 or DHT
Method: Western blot analysis. The phosphorylation status of ERK1/2 was analyzed by immunoblotting using a mouse monoclonal antibody recognizing tyrosine phosphorylated ERK1/2, or a rabbit polyclonal antibody recognizing total ERK1/2, followed by incubation with either an anti-mouse or an anti-rabbit antibody conjugated with horseradish peroxidase (Santa Cruz Biotechnology).

[12] = system: osteocytic cell line MLO-Y4; assay: Apoptosis of MLO-Y4 osteocytic cells (trypan blue); assay type: cell-based; conditions: inhibitor 30 min prior to E2 or DHT; etoposide 6 hours
[13] = system: E domain of the ER; assay: Etoposide-induced apoptosis in HeLa cells transfected with the E domain of ERα; assay type: cell-based, human
Method: as §2, §3

T2 sequence (Q92731 whole entry, species assumed, the tested form may be a part): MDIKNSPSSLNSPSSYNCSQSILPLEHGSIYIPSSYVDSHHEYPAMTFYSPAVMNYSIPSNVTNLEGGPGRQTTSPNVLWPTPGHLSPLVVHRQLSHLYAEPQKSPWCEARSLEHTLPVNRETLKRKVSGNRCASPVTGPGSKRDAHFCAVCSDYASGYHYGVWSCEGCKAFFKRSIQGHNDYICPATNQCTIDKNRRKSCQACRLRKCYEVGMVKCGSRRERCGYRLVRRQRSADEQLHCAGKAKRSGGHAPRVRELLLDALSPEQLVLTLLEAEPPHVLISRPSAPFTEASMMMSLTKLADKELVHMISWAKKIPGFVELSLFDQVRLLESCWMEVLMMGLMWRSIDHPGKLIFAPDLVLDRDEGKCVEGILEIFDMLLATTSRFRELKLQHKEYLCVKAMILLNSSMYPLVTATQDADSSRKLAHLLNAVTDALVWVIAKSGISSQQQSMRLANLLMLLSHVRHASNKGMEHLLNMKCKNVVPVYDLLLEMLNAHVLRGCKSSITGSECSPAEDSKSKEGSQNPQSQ

Compound: C=C1/C(=C\C=C2/CCC[C@]3(C)[C@@H]([C@H](C)CCCC(C)(C)O)CC[C@@H]23)C[C@@H](O)C[C@@H]1O [1,25(OH)2D3, 1,25-dihydroxy-Vitamin D3]
prevention of etoposide-induced apoptosis [1]: prevented apoptosis

Compound: estren
anti-apoptotic efficacy on primary calvaria cells [2]: potent anti-apoptotic efficacy
transcriptional activity on the C3 gene (C3-luc) [3]: no transcriptional activity

effect of peptide on E2-induced ERE-Luc transcription [4]: blocked
effect of peptide on E2-induced decrease in IL-6-Luc transcription [5]: blocked
effect of peptide on the anti-apoptotic activity of ERα (E2) ([6]; peptide co-transfected, 10^−8 M E2): blocked
effect of peptide on E2 effect on IL-6-Luc transcription [7]: blocked
effect of peptide on the anti-apoptotic activity of ERβ (E2) [8]: blocked
effect of peptide on E2-induced ERE-Luc transcription [9]: blocked
Compound: F6: peptide GHEPLTLLERLLMDDKQAV (SEQ ID NO.: 3) interacting with both ERα and ERβ; two copies expressed as GAL4 fusion (also: two copies fused to GAL4 DNA binding domain)

Compound: c1cn[nH]c1 [pyrazole]
anti-apoptotic efficacy on primary calvaria cells [2]: minimal anti-apoptotic efficacy
transcriptional activity on the C3 gene (C3-luc) [3]: potent transcriptional activity

effect of antagonist/inhibitor on the anti-apoptotic effect of E2 or DHT ([6]; HeLa transfected with ERα): abrogated
effect of antagonist/inhibitor on the anti-apoptotic effect of E2 or DHT [10]: abrogated
Compound: COc1cccc(-c2cc(=O)c3ccccc3o2)c1N [PD98059]
effect of inhibitor on induction of ERK phosphorylation by E2 or DHT [11]: blocked
effect of inhibitor on the anti-apoptotic effect of E2 and DHT [12]: completely abrogated
effect of inhibitor on anti-apoptotic activity, compared with full length ERα [13]: exactly the same effects
